In US12064427B2, “Pharmaceutical compositions comprising (S)-4-(4-(4-(((2-(2,6-dioxopiperidin-3-yl)-1-oxoisoindolin-4-yl)oxy)methyl)benzyl)piperazin-1-yl)-3-fluorobenzonitrile and methods of using the same” (Celgene Corporation, priority 2019, dated 2024):

How the values were obtained:
[1] = test system: α1 adrenergic receptor; test: α1 adrenergic receptor binding at 10 μM ([3H]prazosin, cerebral cortex membranes); parameters: species or system rat; settings: inhibition of control radioligand binding
Description: (§1) α1 Adrenergic and Dopamine D2 Receptors. Methods: Binding and functional assays for al adrenergic and dopamine D2 receptors were performed by Eurofins Cerep according to their methods.
α1 Adrenergic Receptor. Binding at 10 μM. The binding assay evaluated the affinity of test article for the non-selective al adrenergic receptor in rat cerebral cortex. Membrane homogenates of cerebral cortex were incubated in duplicate for 60 minutes at room temperature with 0.25 nM [^3H]prazosin in the absence or presence of test articles at 10 μM. After the incubation period, samples were filtered through glass fiber filters, the filters dried and then counted for radioactivity using a scintillation counter. Results are expressed as mean percent inhibition of control radioligand binding.

[2] = biological target: T1, dopamine D2S receptor (Homo sapiens, UniProt P14416); test: Dopamine D2S receptor binding at 10 μM (transfected HEK-293 membranes); settings: inhibition of control radioligand binding
T1 construct: host or cells: HEK-293
Description: as §1
Dopamine D2 Receptor. Binding at 10 μM. The binding assay evaluated the affinity of test articles for the dopamine D2 receptor in transfected human embryonic kidney (HEK)-293 cells. For determining the binding in the D2S receptor assay, test article was incubated with 0.3 nM [^3H] methylspiperone or 1 nM [^3H] 7-hydroxy-2-N,N-dipropylaminotetralin (7-OH-DPAT). [^3H] Methylspiperone at 0.3 nM also was used as control ligand in the D2L binding assay. Cell membrane homogenates were incubated in duplicate at room temperature for 60 minutes with ligand in the absence or presence of test articles at 10 μM. After the incubation period, samples were filtered through glass fiber filters, the filters dried and then counted for radioactivity using a scintillation counter. Results are expressed as mean percent inhibition of control radioligand binding.

[3] = Two-stage dissolution (precipitation risk) of 2 mg BIC; assay type: physicochemical; settings: based on two-stage dissolution findings
Description: The precipitation risk of prototype BIC formulations were studied by a two-stage method (Stage 1 under sink condition and Stage 2 under non-sink condition) for high strength (2 mg).
A two-stage dissolution study was carried out on prototype formulations, wherein the dissolution medium for Stage 1 was 0.01N HCl. […] Based on the two-stage dissolution findings the precipitation risk is considered low for Compound 1.

[4] = test system: NCI-H929; test: Cell proliferation assay (CellTitre-Glo, 120 h); settings: Homo sapiens, NCI-H929, 120 h, read-out: NCI-H929 120 h IC50
Description: (§2) All cell lines were kept in log phase, and cell density and viability were monitored by trypan blue exclusion using the Vi-cell XR cell viability analyzer (Beckman Coulter, Brea, CA).
(§3) A 10-point dose response starting at 10 μM with a 1:3 dilution was printed in duplicate by acoustic dispense using the EDC ATS-100 platform. Alternatively, the 10-point dose response starting at 10 μM with a 1:10 dilution, or starting at 100 nM with a 1:3 dilutions were used.
(§4) Hematological cell lines were dispensed into compound plates by a Multidrop Combi Reagent Dispenser (Thermo Scientific, Waltham, MA) at a concentration of 0.1×10^6 cells per mL in a 50 μL total volume. At 120 h, 25 μL per well of CTG was dispensed by a Multidrop Combi Reagent Dispenser and adenosine triphosphate (ATP) release by viable cells was measured as relative luminescence units after 30 minutes using the Envision platform.
(§5) Proliferation was assessed using the CellTitre-Glo® assay.

[5] = test system: NCI-H929-1051; test: Cell proliferation assay (CellTitre-Glo, 120 h); settings: Homo sapiens, read-out: NCI-H929.1051 120 h IC50
Description: as §2, §3, §4, §5

[6] = test system: OPM2; test: Cell proliferation assay (CellTitre-Glo, 120 h); settings: Homo sapiens, OPM-2, 120 h, read-out: OPM-2 120 h IC50
Description: as §2, §3, §4, §5

[7] = test system: OPM2-P10; test: Cell proliferation assay (CellTitre-Glo, 120 h); settings: Homo sapiens, read-out: OPM-2.P10 120 h IC50
Description: as §2, §3, §4, §5

[8] = test system: MM cell lines; test: Cell proliferation assay (CellTitre-Glo, 120 h), four lines together; settings: Homo sapiens, read-out: antiproliferative IC50 values
Description: as §2, §3, §4, §5

[9] = Water activity testing; assay type: physicochemical
Description: Water activity is a measure of how tightly bound the water is within a substance. To measure water activity, a sample is placed in a sealed vessel which is allowed to reach equilibrium. The final relative humidity (RH) in the vessel is reported as a fraction called “Aw”. Pure water has an Aw of 1.00. […] HygroLab 3 Bench Top Indicator was used to determine water activity testing. Before testing the samples, the equipment is calibrated at different relative humidity levels using RH standards (0% RH, 35% RH, and 80% RH) and at different temperatures to ensure accuracy of the probes. A known amount of sample is sealed inside the sample cell by twisting the cap in downward direction. The starting temperature is recorded before beginning the test. When the change in temperature before and after the test is not more than 0.5° C. record Aw.

[10] = Binary drug-excipient compatibility study; settings: binary mixture with Compound 1, open dish, 50° C./75% RH, 3 and 6 weeks vs 5° C. control
Description: A binary drug-excipient compatibility study was conducted to identify suitable excipients for capsule formulation. These binary mixtures were studied in open dish and subjected to 5° C. (control) and 50° C./75% RH conditions for 3 and 6 weeks respectively. Selective samples have been tested for chemical (impurities/degradants) and racemization (loss of chiral purity).

[11] = acidifiers evaluated; cited from earlier work

T1 sequence (P14416 1-414 isoform P14416-2): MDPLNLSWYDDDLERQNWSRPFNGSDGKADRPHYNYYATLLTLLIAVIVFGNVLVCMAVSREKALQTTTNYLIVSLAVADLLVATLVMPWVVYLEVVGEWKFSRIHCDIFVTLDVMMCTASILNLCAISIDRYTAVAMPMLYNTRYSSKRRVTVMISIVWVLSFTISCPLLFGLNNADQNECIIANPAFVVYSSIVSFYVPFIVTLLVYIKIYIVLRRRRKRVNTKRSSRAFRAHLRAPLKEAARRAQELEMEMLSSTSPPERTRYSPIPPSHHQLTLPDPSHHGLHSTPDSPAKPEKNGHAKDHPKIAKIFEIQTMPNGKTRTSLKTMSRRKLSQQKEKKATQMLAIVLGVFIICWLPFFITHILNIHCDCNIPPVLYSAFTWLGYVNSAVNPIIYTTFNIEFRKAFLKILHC

With O=C1CCC(N2Cc3c(OCc4ccc(CN5CCN(c6ccc(F)cc6F)CC5)cc4)cccc3C2=O)C(=O)N1 (racemic) [Compound A, 3-(4-((4-((4-(2,4-difluorophenyl)piperazin-1-yl)methyl)benzyl)oxy)-1-oxoisoindolin-2-yl)piperidine-2,6-dione] the “Adrenergic α1 % Inh. (@10 μM)” value [1] was 102%.
With N#Cc1ccc(N2CCN(Cc3ccc(COc4cccc5c4CN([C@H]4CCC(=O)NC4=O)C5=O)cc3)CC2)c(F)c1 [Compound 1, (S)-4-(4-(4-(((2-(2,6-dioxopiperidin-3-yl)-1-oxoisoindolin-4-yl)oxy)methyl)benzyl)piperazin-1-yl)-3-fluorobenzonitrile] the “Dopamine D2S % Inh. (@10 μM)” value [2] was 55/52, the precipitation risk [3] was “low” and the IC50 [4] was 70 pM. It also gave an IC50 [5] of 1000 pM, an IC50 [6] of 70 pM and an IC50 [7] of 4300 pM. It also gave an IC50 [8] of 70 to 4300 pM.
With N#Cc1ccc(N2CCN(Cc3ccc(COc4cccc5c4CN([C@H]4CCC(=O)NC4=O)C5=O)cc3)CC2)c(F)c1 [Form K of Compound 1, (S)-4-(4-(4-(((2-(2,6-dioxopiperidin-3-yl)-1-oxoisoindolin-4-yl)oxy)methyl)benzyl)piperazin-1-yl)-3-fluorobenzonitrile] the “RH at which Form K converts to an anhydrous form” value [9] was < 20%.
For OC[C@H]1O[C@@H](O[C@H]2[C@H](O)[C@@H](O)C(O)O[C@@H]2CO)[C@H](O)[C@@H](O)[C@H]1O (stereo partly shown) [Lactose], the “compatibility of excipient with the drug substance (chemical degradation, chiral purity)” value (from here on “compatibility of excipient”) [10] was “compatible with little decrease in chiral purity”.
With OC[C@@H](O)[C@@H](O)[C@H](O)[C@H](O)CO [Mannitol] the “compatibility of excipient” value [10] was “compatible, with some hydrolytic chemical degradation”.
For CCCCCCCCCCCCCCCCCC(=O)O [Stearic Acid], the “compatibility of excipient” value [10] was “chemically compatible”.
With O=C(O)/C=C/C(=O)O [fumaric acid] the “compatibility of excipient” value [10] was “more compatible acidifier”.
With CCCCCCCCCCCCOS(=O)(=O)[O-].[Na+] [sodium lauryl sulfate (SLS), sodium lauryl sulfate] the “compatibility of excipient” value [10] was “loss of chiral purity and increase in chemical degradation chiefly by hydrolysis”.
In the case of O=C(O)CCC(=O)O [succinic acid], the pKa [11] is listed as 4.18 and the “compatibility of excipient” value [10] is listed as “chemically incompatible”.
